Holding throughout (assay type): organism-based
The subject of data set [1] is Cicer arietinum. Nature of the data set: Toxicity in drug-tolerant Cicer arietinum (chickpea) assessed as effect on shoot dry weight per pot at 75 g/ha after 42 days in presence of 1.5 mM of nitrate (reference value: 0.50 gram). The conditions noted are these: in vivo, 1008 h.
Data set [2] deals with Cicer arietinum. In words: Toxicity in drug-tolerant Cicer arietinum (chickpea) assessed as effect on shoot dry weight per pot at 75 g/ha after 42 days (reference value: 0.53 gram). Conditions: in vivo, 1008 h.
Data set [3] has as its system Cicer arietinum. In words: Toxicity in drug-tolerant Cicer arietinum (chickpea) assessed as effect on nodule dry weight per gram of root dry weight at 75 g/ha after 42 days (reference value: 209.7 mg). The conditions noted are these: in vivo, other, 1008 h.
The test system of data set [4] is Cicer arietinum. In words: Toxicity in drug-sensitive Cicer arietinum (chickpea) assessed as effect on root dry weight per pot at 75 g/ha after 42 days (reference value: 0.26 gram). Conditions: in vivo, 1008 h.
Data set [5] concerns Cicer arietinum. In words: Toxicity in drug-tolerant Cicer arietinum (chickpea) assessed as effect on root nitrogen level per gram of root dry weight at 75 g/ha after 42 days (reference value: 12.1 mg). The conditions noted are these: in vivo, other, 1008 h.
In data set [6] the test system is Cicer arietinum. In words: Toxicity in drug-tolerant Cicer arietinum (chickpea) assessed as effect on amount of fixed nitrogen level per gram of plant dry weight at 75 g/ha after 42 days (reference value: 5.5 mg). Conditions: in vivo, 1008 h.
For data set [7], the system named is Cicer arietinum. Nature of the data set: Toxicity in drug-tolerant Cicer arietinum (chickpea) assessed as effect on average nodule weight at 75 g/ha after 42 days (reference value: 1.21 mg). Conditions: in vivo, 1008 h.
The test system of data set [8] is Cicer arietinum. Nature of the data set: Toxicity in drug-tolerant Cicer arietinum (chickpea) assessed as effect on plant height at 75 g/ha after 42 days (reference value: 21.4 cm). The conditions noted are these: in vivo, 1008 h.
The subject of data set [9] is Cicer arietinum. In words: Toxicity in drug-sensitive Cicer arietinum (chickpea) assessed as effect on amount of fixed nitrogen level per gram of plant dry weight at 75 g/ha after 42 days (reference value: 5.5 mg). The conditions noted are these: in vivo, 1008 h.
For data set [10], the system named is Cicer arietinum. In words: Toxicity in drug-tolerant Cicer arietinum (chickpea) assessed as effect on root dry weight per pot at 75 g/ha after 42 days (reference value: 0.30 gram). Conditions: in vivo, 1008 h.
Data set [11] has as its system Cicer arietinum. Nature of the data set: Toxicity in drug-sensitive Cicer arietinum (chickpea) assessed as effect on nodule dry weight per gram of root dry weight at 75 g/ha after 42 days (reference value: 258 mg). The conditions noted are these: in vivo, 1008 h.
Data set [12] concerns Cicer arietinum. Nature of the data set: Toxicity in drug-sensitive Cicer arietinum (chickpea) assessed as effect on shoot dry weight per pot at 75 g/ha after 42 days (reference value: 0.50 gram). Conditions: in vivo, 1008 h.
Data set [13] deals with Cicer arietinum. Nature of the data set: Toxicity in drug-tolerant Cicer arietinum (chickpea) assessed as effect on total nitrogen level per gram of plant dry weight at 75 g/ha after 42 days (reference value: 31.1 mg). Conditions: in vivo, 1008 h.
For data set [14], the system named is Cicer arietinum. Nature of the data set: Toxicity in drug-sensitive Cicer arietinum (chickpea) assessed as effect on shoot dry weight per pot at 75 g/ha after 42 days in presence of 1.5 mM of nitrate (reference value: 0.38 gram). The conditions noted are these: in vivo, 1008 h.
Data set [15] concerns Cicer arietinum. Nature of the data set: Toxicity in drug-sensitive Cicer arietinum (chickpea) assessed as effect on plant height at 75 g/ha after 42 days (reference value: 21.8 cm). The conditions noted are these: in vivo, 1008 h.
The test system of data set [16] is Cicer arietinum. In words: Toxicity in drug-sensitive Cicer arietinum (chickpea) assessed as effect on average nodule weight at 75 g/ha after 42 days (reference value: 1.31 mg). Conditions: in vivo, 1008 h.
For data set [17], the system named is Cicer arietinum. In words: Toxicity in drug-sensitive Cicer arietinum (chickpea) assessed as effect on root nitrogen level per gram of root dry weight at 75 g/ha after 42 days (reference value: 13.4 mg). The conditions noted are these: in vivo, 1008 h.
Data set [18] deals with Cicer arietinum. In words: Toxicity in drug-sensitive Cicer arietinum (chickpea) assessed as effect on total nitrogen level per gram of plant dry weight at 75 g/ha after 42 days (reference value: 34.5 mg). The conditions noted are these: in vivo, 1008 h.
Data set [19] has as its system Cicer arietinum. Nature of the data set: Toxicity in drug-tolerant Cicer arietinum (chickpea) assessed as effect on amount of fixed nitrogen level per gram of plant dry weight at 75 g/ha after 42 days in presence of 1.5 mM of nitrate (reference value: 5.9 mg). The conditions noted are these: in vivo, 1008 h.
Data set [20] relates to Cicer arietinum. In words: Toxicity in drug-sensitive Cicer arietinum (chickpea) assessed as effect on amount of fixed nitrogen level per gram of plant dry weight at 75 g/ha after 42 days in presence of 1.5 mM of nitrate (reference value: 6 mg). Conditions: in vivo, 1008 h.

Each structure is given as a SMILES string.

For `CS(=O)(=O)c1cc(C(F)(F)F)ccc1C(=O)c1cnoc1C1CC1` [ISOXAFLUTOLE], the Activity in data set [1] amounted to 0.54 g; in data set [2], 0.51 g; in data set [3], 174.9 mg; in [4] it was 0.13 g; in data set [5] it was 11.1 mg; in data set [6] it was 3.7 mg. The Activity in data set [7] is recorded as 1.16 mg; in [8], 20.6 cm; in data set [9] it was 3.5 mg; in data set [10] it was 0.27 g; in [11] it was 123.7 mg; in data set [12], 0.39 g. Besides, the Activity in [13] is on record as 30.1 mg; in data set [14] it was 0.51 g; in data set [15] it was 15.5 cm; in data set [16], 0.76 mg; in data set [17] it was 8.1 mg; in [18] it was 27.4 mg. The Activity is 3.1 mg in [19] and 4.6 mg in data set [20].

Values taken from ChEMBL document CHEMBL3046288, “Effect of isoxaflutole on the growth, nodulation and nitrogen fixation of chickpea (Cicer arietinum L.)” (Crop Prot, 2009).
